Measured values taken from ChEMBL document CHEMBL1145420, “On sampling of fragment space” (J Med Chem, 2007).

Legend:
[1] = target: Dipeptidyl peptidase 2 (Homo sapiens) (UniProt Q9UHL4); assay: Inhibition of QPP
[2] = target: Dipeptidyl peptidase 9 (Homo sapiens) (UniProt Q86TI2); assay: Inhibition of DPP9
[3] = target: Prolyl endopeptidase FAP (Homo sapiens) (UniProt Q12884); assay: Inhibition of FAP
[4] = target: Dipeptidyl peptidase 8 (Homo sapiens) (UniProt Q6V1X1); assay: Inhibition of DPP8
Dipeptidyl peptidase 8 (Homo sapiens), sequence (Q6V1X1 whole entry, looked up): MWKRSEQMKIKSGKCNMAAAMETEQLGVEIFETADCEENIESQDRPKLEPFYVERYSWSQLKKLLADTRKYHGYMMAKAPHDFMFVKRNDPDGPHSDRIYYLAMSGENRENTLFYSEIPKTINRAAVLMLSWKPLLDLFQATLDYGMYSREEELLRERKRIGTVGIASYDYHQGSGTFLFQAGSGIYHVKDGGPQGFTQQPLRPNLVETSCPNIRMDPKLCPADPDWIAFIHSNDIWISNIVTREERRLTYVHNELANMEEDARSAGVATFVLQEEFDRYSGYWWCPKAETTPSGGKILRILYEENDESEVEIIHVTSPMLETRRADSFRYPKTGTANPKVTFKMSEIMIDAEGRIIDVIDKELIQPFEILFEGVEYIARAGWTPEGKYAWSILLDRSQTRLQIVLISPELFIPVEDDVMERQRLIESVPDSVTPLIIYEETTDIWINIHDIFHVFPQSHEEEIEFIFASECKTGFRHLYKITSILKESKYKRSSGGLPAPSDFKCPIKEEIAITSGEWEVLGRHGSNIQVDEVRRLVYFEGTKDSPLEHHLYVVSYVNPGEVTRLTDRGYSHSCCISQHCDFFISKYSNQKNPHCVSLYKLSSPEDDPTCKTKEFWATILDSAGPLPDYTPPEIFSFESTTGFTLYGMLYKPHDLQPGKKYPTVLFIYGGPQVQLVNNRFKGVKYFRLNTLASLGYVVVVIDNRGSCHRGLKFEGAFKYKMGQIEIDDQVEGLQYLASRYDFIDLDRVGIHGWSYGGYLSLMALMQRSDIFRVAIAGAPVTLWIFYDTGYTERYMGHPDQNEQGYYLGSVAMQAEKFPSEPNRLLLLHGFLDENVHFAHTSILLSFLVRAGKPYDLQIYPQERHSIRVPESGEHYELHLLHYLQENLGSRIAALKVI

[5] = target: T1, Prolyl endopeptidase (Homo sapiens) (UniProt P48147); assay: Inhibition of PEP
T1 sequence (whole entry): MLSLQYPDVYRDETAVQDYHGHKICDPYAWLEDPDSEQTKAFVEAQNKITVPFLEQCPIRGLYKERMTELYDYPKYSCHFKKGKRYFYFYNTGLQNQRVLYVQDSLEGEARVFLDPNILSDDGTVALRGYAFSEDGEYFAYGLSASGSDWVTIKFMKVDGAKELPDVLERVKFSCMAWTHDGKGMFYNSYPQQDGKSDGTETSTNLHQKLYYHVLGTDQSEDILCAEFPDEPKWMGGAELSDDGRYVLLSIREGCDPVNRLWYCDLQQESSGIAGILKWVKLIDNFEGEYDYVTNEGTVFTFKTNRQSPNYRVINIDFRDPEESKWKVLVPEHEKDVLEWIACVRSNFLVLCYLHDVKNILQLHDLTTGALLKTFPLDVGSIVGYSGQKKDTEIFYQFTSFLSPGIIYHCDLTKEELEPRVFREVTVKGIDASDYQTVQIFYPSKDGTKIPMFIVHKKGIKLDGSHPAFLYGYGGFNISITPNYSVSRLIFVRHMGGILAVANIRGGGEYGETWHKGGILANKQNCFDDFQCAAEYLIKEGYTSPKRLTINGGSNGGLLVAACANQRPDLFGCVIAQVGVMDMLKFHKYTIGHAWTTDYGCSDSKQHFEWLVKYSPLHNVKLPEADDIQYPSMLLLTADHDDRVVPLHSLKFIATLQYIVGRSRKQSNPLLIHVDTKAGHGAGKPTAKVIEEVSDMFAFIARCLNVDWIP

Dipeptidyl peptidase 9 (Homo sapiens), sequence (Q86TI2 2-863 limits assumed): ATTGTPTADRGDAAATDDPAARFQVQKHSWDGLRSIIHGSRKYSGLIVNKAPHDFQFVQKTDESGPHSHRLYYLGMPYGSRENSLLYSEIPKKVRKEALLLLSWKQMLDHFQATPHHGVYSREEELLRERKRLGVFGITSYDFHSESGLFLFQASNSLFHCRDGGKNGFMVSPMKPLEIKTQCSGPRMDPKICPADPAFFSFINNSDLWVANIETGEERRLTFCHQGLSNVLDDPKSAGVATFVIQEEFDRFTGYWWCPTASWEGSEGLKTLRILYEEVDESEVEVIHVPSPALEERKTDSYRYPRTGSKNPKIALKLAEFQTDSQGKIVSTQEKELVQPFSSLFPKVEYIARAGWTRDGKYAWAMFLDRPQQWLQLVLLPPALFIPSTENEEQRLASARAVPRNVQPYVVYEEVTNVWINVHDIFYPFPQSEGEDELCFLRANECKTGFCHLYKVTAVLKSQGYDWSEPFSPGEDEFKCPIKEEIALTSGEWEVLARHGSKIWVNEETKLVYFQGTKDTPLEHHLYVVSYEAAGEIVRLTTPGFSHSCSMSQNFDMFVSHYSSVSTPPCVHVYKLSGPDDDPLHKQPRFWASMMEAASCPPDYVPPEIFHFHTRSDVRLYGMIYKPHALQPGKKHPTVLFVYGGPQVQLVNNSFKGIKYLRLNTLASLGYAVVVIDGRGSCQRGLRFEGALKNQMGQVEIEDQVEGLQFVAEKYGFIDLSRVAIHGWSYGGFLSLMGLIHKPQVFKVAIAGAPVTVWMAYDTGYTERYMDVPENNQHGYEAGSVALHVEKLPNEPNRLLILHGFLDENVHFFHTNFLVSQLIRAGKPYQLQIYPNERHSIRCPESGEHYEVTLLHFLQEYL
Prolyl endopeptidase FAP (Homo sapiens), sequence (Q12884 whole entry): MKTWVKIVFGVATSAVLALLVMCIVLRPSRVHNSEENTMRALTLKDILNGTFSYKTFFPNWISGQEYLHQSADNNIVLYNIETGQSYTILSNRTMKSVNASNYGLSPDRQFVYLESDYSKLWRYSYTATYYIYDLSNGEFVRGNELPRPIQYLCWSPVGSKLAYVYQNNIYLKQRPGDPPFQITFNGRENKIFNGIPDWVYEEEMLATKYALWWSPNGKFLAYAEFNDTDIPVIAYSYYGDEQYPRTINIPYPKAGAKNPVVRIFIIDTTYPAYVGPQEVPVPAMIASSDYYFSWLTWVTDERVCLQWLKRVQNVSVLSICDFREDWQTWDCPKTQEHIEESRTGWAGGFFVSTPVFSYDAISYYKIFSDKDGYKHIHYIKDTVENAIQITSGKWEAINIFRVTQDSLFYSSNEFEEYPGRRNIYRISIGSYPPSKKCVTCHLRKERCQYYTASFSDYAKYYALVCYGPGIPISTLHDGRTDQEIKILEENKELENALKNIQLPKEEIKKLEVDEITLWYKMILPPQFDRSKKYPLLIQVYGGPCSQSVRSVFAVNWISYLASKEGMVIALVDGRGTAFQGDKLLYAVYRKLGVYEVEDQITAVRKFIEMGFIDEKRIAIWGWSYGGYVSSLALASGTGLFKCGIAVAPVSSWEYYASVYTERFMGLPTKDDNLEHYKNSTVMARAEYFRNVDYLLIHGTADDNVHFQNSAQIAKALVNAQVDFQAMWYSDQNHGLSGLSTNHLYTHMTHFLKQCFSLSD

Activity [1] | Activity [2] | Activity [3] | Activity [4] | Activity [5] | Compound
680 µM | > 1000 µM | > 1000 µM | 460 µM | > 1000 µM | CNC(=O)C[C@H](N)Cc1ccccc1
66 µM | > 100 µM |  | > 10 µM |  | N[C@@H](CC(=O)N1CCC[C@H]1C(=O)NCc1cc(Cl)ccc1OCC(=O)NC1CC1)Cc1ccccc1
